# US20230144619A1, “SALT OF ARYLAMINOPURINE DERIVATIVE, PREPARATION METHOD THEREFOR AND USE THEREOF” (CSPC Zhongqi Pharmaceutical Technology (Shijiazhuang) Co., …, priority 2020, published 2023)
# How the values were obtained:
# DSC and TGA tests = type: physicochemical; details: onset temperature
# Procedure: 6. Differential Scanning Calorimetry-Thermogravimetric Analysis (DSC-TGA)
# Detection instrument: NETZSCH STA 449F3
# Temperature range: 20° C.-350° C.;
# Heating rate: 10.0 (K/min);
# 7. Differential Scanning Calorimetry (DSC)
# Detection instrument: NETZSCH DSC 214 Polyma
# Temperature range: 20° C.-250° C.;
# Heating rate: 5.0 (K/min);
# 8. Thermogravimetric Analysis (TGA)
# Detection instrument: METTLER and SDT Q600
# The salts obtained in Examples 1 and 3-17 and the compound represented by Formula 1 were subjected to the DSC and TGA tests in media, and the test results were shown in the following table: […]
# Hygroscopicity test = type: physicochemical; details: 25±1° C., relative humidity 80%±2% (DVS, 80% RH)
# Procedure: Detection instrument: XPE105DR
# (1) A dry stoppered glass weighing bottle was taken, placed in a suitable constant-temperature desiccator at 25° C. 1° C. (with a saturated solution of ammonium chloride or ammonium sulfate in the lower part) or an artificial climate box (with the set temperature of 25° C.±1° C. and the relative humidity of 80%±2%) on the day before the test, and precisely weighed and recorded as the weight (m1).
# (2) An appropriate amount of the test sample was taken and spread in the above-mentioned weighing bottle. The thickness of the test sample was generally about 1 mm, and the bottle was precisely weighed and recorded as the weight (m2).
# (3) The stopper was removed to open the weighing bottle, and the opened weighing bottle and the stopper were placed under the above-mentioned constant temperature and humidity conditions for 24 hours.
# (4) The opened weighing bottle was stoppered, precisely weighed, and recorded as the weight (m3).
# Percentage increase in mass=(m3−m2)/(m2−m1)×100%
# (5) The description of hygroscopicity characteristics and the definition for the weight gain due to hygroscopicity:
# Deliquescence: Sufficient water was absorbed to form a liquid.
# Very hygroscopic: the weight gain due to hygroscopicity was not less than 15%.
# Hygroscopic: the weight gain due to hygroscopicity was less than 15% but not less than 2%.
# Slightly hygroscopic: the weight gain due to hygroscopicity was less than 2% but not less than 0.2%.
# Not or nearly not hygroscopic: the weight gain due to hygroscopicity was less than 0.2%.
# Appropriate amounts of the salt samples obtained from Examples 1 and 3-17 were subjected to the hygroscopicity test at a temperature of 25±1° C. under a relative humidity of 80%±2%, and the results were as follows: […]
# [1] = Accelerated stability test; type: physicochemical
# Procedure: Appropriate amounts of the salt samples obtained from Examples 1 and 3-17 were placed at a temperature of 25±2° C. under 0%±5% RH in an open environment for 10 days and at a temperature of 40±2° C. under 75%±5% RH in an open environment for 10 days respectively to perform the accelerated tests, and the results were as follows: […]
# [2] = Solubility test (UV spectrophotometer, saturated solutions shaken 24 hours); type: physicochemical; details: for Solubility, Water medium pH = 1.2 / Solubility, Water medium pH = 4.5 / Solubility, Water medium pH = 6.8 / Solubility, Water medium: 25° C.; for Solubility, Water medium pH = 1.2: pH=1.2 hydrochloric acid solution; for Solubility, Water medium pH = 4.5: pH=4.5 phosphate buffer solution; for Solubility, Water medium pH = 6.8: pH=6.8 phosphate buffer solution; for Solubility, Water medium: water (purified water)
# Procedure: Detection instrument: Ultraviolet spectrophotometer/Evolution 300
# The following solutions with pH=1.2, pH=4.5, and pH=6.8 and water were used as the solvent, and the solvent preparation process was as follows:
# (1) pH=1.2 hydrochloric acid solution: To 7.65 mL of hydrochloric acid was added 1000 mL of water, and the mixture was shaken uniformly to obtain the target solution.
# (2) pH=4.5 phosphate buffer solution: 6.8 g of potassium dihydrogen phosphate was taken and diluted with water to 1000 mL, and the mixture was shaken uniformly to obtain the target solution.
# (2) pH=6.8 phosphate buffer solution: 6.8 g of potassium dihydrogen phosphate and 0.896 g of sodium hydroxide were taken and diluted with water to 1000 mL, and the mixture was shaken uniformly to obtain the target solution.
# (4) Water: purified water
# Test tubes with stopper were taken, and 10 mL of dissolution media at various pH values were precisely added to the test tubes respectively, and excessive stock drugs were added until supersaturated solutions were formed. The adding amounts were recorded. The solutions were shaken uniformly, sealed with stoppers, and shaken for 24 hours in a shaker. 2 mL of solutions were taken out at different time points respectively, and centrifuged. The resulting supernatants were taken, filtered, and the subsequent filtrates were taken for later use.
# The above-mentioned saturated solutions in different solvents were taken, and solvents were added to dilute the solutions to certain volumes. The absorbances were measured at a wavelength of 287 nm.
# Preparation of a solution of the reference substance: an appropriate amount of the compound represented by Formula 1 was taken as the reference substance, and precisely weighed. A solvent was added to dissolve and dilute the reference compound to produce a solution containing about 10 μg of the compound represented by Formula 1 per 1 mL. The absorbance was measured at a wavelength of 287 nm to calculate the solubility.
# The salts obtained in Examples 1 and 3-17 and the compound represented by Formula 1 were subjected to the solubility test in media and the test results were shown in the following table: […]
# [3] = test system: lung cancer (PC-9) transplantation tumors; details: lung cancer PC-9 transplantation tumors in nude mice, background statement; cited from earlier work
# leukemia = details: background statement; cited from earlier work
# [4] = test system: human non-small cell lung cancer HCC827; details: lung cancer HCC827 transplantation tumors in nude mice, background statement; cited from earlier work
# [5] = test system: MV4-11 (FLT3-ITD mutation) subcutaneous tumor model; details: human leukemia MV4-11 transplantation tumors in nude mice, background statement; cited from earlier work
# lung cancer = details: background statement; cited from earlier work
# [6] = test system: K562 (BCR-Abl gene rearrangement) subcutaneous tumor model; details: human leukemia K562 transplantation tumors in nude mice, background statement; cited from earlier work
# [7] = Placed at 25 ± 2° C. under 0% ± 5% RH in an open environment for 10 days
# [8] = Placed at 40 ± 2° C. under 75% ± 5% RH in an open environment for 10 days
TGA: starting to lose the acid (DSC and TGA tests),TGA: starting to lose the water of crystallization (DSC and TGA tests),Weight gain due to hygroscopicity (Hygroscopicity test),"Appearance [1, 7]","Appearance [1, 8]","Solubility, Water medium pH = 1.2 [2]","Solubility, Water medium pH = 4.5 [2]","Solubility, Water medium pH = 6.8 [2]","Solubility, Water medium [2]",TGA: starting to decompose (DSC and TGA tests),solubility in water (in words) ([2]; water),Structure (SMILES),Hygroscopicity (Hygroscopicity test),efficacy on transplantation tumors [3],anti-leukemia activity compared with Sunitinib (leukemia),efficacy on transplantation tumors [4],efficacy on transplantation tumors [5],anti-lung cancer activity compared with Gefitinib (lung cancer),efficacy on transplantation tumors [6]
~220 °C (see FIG. 31),crystallization at about 40° C.;,0.68%,Yellow solid,Yellow solid,87.38 mg/mL,16.13 mg/mL,8.61 mg/mL,27.78 mg/mL,–,–,CC(C)n1c(Nc2cccnc2)nc2cnc(Nc3ccc(N4CCN(C)CC4)cc3)nc21 [Example 11],Slightly hygroscopic (the weight gain due to hygroscopicity was less than 2% but not less than 0.2%.),–,–,–,–,–,–
~80 °C (see FIG. 37),crystallization at about 40° C.;,1.59%,Off-white solid,Off-white solid,41.47 mg/mL,0.72 mg/mL,0.03 mg/mL,0.04 mg/mL,–,–,CC(C)n1c(Nc2cccnc2)nc2cnc(Nc3ccc(N4CCN(C)CC4)cc3)nc21 [Example 14],Slightly hygroscopic (the weight gain due to hygroscopicity was less than 2% but not less than 0.2%.),–,–,–,–,–,–
~80 °C (see FIG. 39),crystallization at about 40° C.;,2.59%,Off-white solid,Off-white solid,96.58 mg/mL,45.67 mg/mL,27.84 mg/mL,63.57 mg/mL,–,–,CC(C)n1c(Nc2cccnc2)nc2cnc(Nc3ccc(N4CCN(C)CC4)cc3)nc21 [Example 15],Hygroscopic (the weight gain due to hygroscopicity was less than 15% but not less than 2%.),–,–,–,–,–,–
–,–,0.45%,–,–,12.60 mg/mL,0.57 mg/mL,0.04 mg/mL,0.05 mg/mL,~155 °C (see FIG. 42),insoluble in water,"CC(C)n1c(Nc2cccnc2)nc2cnc(Nc3ccc(N4CCN(C)CC4)cc3)nc21 [The compound represented by Formula 1, 9-isopropyl-2-(4-(4-methylpiperazin-1-yl)anilino)-8-(pyridine-3-amino)-9H-purine]",Slightly hygroscopic (the weight gain due to hygroscopicity was less than 2% but not less than 0.2%.),remarkable efficacy,better than that of Sunitinib,remarkable efficacy,remarkable efficacy,comparable to that of Gefitinib,remarkable efficacy
